From patent US20140135310A1, “SULPHONAMIDE DERIVATIVES OF ALICYCLIC AMINES FOR THE TREATMENT OF CENTRAL NERVOUS SYSTEM DISEASES” (Adamed Sp. z o.o., priority 2011, published 2014) come the findings set out here.

Format in all cases: cell-based
Assay [1] concerns the target 5-HT6 serotoninergic receptors (Homo sapiens, UniProt P50406). The assay can be described thus: Cellular functional assay, 5-HT6 serotoninergic receptors. The following applies: for 5-HT6 ag [%]: agonist mode, percent of control specific agonist response. Here is the method:
(§1) The results are expressed as a percent of control specific agonist response ((measured specific response/control specific agonist response)×100) obtained in the presence of the test compounds.
(§2) The EC50 values (concentration producing a half-maximal specific response) and IC50 values (concentration causing a half-maximal inhibition of the control specific agonist response) were determined by non-linear regression analysis of the concentration-response curves generated with mean replicate values using Hill equation curve fitting (Y=D+[(A−D)/(1+(C/C50)nH)], where Y=specific response, D=minimum specific response, A=maximum specific response, C=compound concentration, and C50=EC50 or IC50, and nH=slope factor). This analysis was performed using a software developed at Cerep (Hill software) and validated by comparison with data generated by the commercial software SigmaPlot® 4.0 for Windows® (© 1997 by SPSS Inc.).
(§3) For the antagonists, the apparent dissociation constants (Kb) were calculated using the modified Cheng Prusoff equation (Kb=IC50/(1+(A/EC50A)), where A=concentration of reference agonist in the assay, and EC50A=EC50 value of the reference agonist).

For assay [2], the target named is 5-HT2A serotoninergic receptors (Homo sapiens, UniProt P28223). Kind of assay: Cellular functional assay, 5-HT2A serotoninergic receptors. As for the experimental part: as §1
The EC50 values (concentration producing a half-maximal specific response) and IC50 values (concentration causing a half-maximal inhibition of the control specific agonist response) were determined by non-linear regression analysis of the concentration-response curves generated with mean replicate values using Hill equation curve fitting (Y=D+[(A−D)/(1+(C/C50)nH)], where Y=specific response, D=minimum specific response, A=maximum specific response, C=compound concentration, and C50=EC50 or IC50, and nH=slope factor).
as §3

Assay [3] deals with D2 dopaminergic receptors (Homo sapiens, UniProt P14416). Kind of assay: Cellular functional assay, D2 dopaminergic receptors. The conditions noted are these: for D2 ag [%]: agonism, percent of control specific agonist response (3 μM dopamine for control); for D2 ag [%] / D2 antag [%]: D2S (h), HEK-293 cells; for D2 antag [%]: antagonism, stimulus dopamine (30 nM). Here is the method:
as §1, §2, §3

Assay [4] deals with D3 dopaminergic receptors (Homo sapiens, UniProt P35462). The assay can be described thus: Cellular functional assay, D3 dopaminergic receptors. The conditions noted are these: for D3 ag [%]: agonism, percent of control specific agonist response (0.3 μM dopamine for control); for D3 ag [%] / D3 antag [%]: D3 (h), CHO cells; for D3 antag [%]: antagonism, stimulus dopamine (10 nM). As for the experimental part: as §1, §2, §3

In assay [5] the target is 5-HT7 serotoninergic receptors (Homo sapiens, UniProt P34969). Kind of assay: Cellular functional assay, 5-HT7 serotoninergic receptors. The following applies: for 5-HT7 ag [%]: agonist mode, percent of control specific agonist response; for Kb: apparent dissociation constant, modified Cheng Prusoff equation, read-out: 5-HT7 antag Kb. Here is the method:
as §1, §2, §3

The mark [6] stands for this setting: agonist mode, percent of control specific agonist response.

Read-outs that look alike come from different tables or passages of the source.

Chain of 5-HT7 serotoninergic receptors (P34969 whole entry): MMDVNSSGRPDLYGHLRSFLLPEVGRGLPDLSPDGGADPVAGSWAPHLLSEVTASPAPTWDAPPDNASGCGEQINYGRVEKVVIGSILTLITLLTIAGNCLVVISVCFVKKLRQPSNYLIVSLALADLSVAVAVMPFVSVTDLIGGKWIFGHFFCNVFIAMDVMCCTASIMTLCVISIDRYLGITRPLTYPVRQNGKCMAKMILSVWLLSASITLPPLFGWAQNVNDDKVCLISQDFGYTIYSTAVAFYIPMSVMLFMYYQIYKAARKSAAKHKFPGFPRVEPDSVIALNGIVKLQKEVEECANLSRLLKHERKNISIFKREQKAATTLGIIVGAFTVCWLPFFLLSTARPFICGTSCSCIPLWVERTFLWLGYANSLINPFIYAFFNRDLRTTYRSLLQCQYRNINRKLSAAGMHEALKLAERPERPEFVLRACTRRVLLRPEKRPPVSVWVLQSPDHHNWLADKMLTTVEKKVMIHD
Chain of D2 dopaminergic receptors (P14416 whole entry): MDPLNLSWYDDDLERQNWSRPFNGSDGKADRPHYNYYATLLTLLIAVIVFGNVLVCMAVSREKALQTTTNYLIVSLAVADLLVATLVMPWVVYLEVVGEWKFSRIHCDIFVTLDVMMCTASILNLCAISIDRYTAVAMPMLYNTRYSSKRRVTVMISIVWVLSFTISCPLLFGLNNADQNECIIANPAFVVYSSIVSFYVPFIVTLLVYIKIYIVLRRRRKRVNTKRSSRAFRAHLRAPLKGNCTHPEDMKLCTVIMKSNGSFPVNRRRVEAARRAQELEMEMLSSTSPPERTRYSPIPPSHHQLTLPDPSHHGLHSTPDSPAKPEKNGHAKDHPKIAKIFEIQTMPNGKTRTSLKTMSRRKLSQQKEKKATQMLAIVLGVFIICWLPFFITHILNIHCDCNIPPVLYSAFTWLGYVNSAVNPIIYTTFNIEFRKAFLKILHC
Chain of 5-HT2A serotoninergic receptors (P28223 whole entry): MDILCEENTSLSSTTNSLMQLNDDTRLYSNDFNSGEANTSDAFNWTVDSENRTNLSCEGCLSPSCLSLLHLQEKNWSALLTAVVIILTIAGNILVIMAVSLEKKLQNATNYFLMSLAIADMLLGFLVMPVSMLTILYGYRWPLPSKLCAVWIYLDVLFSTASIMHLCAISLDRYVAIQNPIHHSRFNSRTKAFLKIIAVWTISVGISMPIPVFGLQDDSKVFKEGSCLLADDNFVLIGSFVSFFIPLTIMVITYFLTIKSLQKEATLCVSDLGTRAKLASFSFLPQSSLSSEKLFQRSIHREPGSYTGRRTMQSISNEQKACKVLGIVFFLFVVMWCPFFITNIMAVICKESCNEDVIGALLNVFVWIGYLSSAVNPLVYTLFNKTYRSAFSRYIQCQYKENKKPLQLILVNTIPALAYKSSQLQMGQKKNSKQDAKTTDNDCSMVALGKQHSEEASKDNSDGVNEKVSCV
Chain of 5-HT6 serotoninergic receptors (P50406 whole entry): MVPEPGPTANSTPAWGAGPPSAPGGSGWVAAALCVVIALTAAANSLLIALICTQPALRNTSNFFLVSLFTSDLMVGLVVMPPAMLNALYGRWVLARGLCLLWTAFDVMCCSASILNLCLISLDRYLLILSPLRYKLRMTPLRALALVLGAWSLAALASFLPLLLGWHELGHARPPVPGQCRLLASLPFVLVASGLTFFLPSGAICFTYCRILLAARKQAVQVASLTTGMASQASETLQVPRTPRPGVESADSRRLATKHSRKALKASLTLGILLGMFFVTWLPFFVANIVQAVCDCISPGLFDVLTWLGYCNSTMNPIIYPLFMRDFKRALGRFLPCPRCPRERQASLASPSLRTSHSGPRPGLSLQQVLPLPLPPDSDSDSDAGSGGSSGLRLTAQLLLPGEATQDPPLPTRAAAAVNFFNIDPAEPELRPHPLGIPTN
Chain of D3 dopaminergic receptors (P35462 whole entry): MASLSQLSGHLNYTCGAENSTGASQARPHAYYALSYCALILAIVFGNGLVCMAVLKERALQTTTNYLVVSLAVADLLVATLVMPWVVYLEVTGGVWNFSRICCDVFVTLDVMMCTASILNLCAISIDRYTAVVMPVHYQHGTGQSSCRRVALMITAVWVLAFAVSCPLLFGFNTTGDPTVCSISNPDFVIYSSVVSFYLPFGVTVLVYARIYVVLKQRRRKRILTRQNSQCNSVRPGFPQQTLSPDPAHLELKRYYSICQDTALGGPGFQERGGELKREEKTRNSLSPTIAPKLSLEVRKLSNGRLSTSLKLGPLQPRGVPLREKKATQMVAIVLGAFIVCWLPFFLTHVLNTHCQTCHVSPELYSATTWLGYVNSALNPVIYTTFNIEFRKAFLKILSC

With `Cc1c(S(=O)(=O)N[C@H]2CCN(CCCc3noc4cc(F)ccc34)C2)sc2ccc(Cl)cc12` [Compound 205, 5-Chloro-N-[(3S)-1-[3-(6-fluoro-1,2-benzoxazol-3-yl)propyl]pyrrolidin-3-yl]-3-methyl-benzothiophene-2-sulphonamide], the “5-HT6 ag [%]” value in assay [1] is listed as 1%. Moreover, the “5-HT2A ag [%]” value in assay [2] (setting [6]) was −3%. Besides, in assay [3], the “D2 ag [%]” value is reported as 3% and the “D2 antag [%]” value was 61%. Besides, in assay [4], the “D3 ag [%]” value was found to be 7% and the “D3 antag [%]” value is given as 95%. Further, the “5-HT7 ag [%]” value in assay [5] is −1%.

Consider `Cc1ccc2sc(S(=O)(=O)NC3CCN(CCCc4noc5cc(F)ccc45)C3)cc2c1` (stereo not shown) [Compound 226, N-[1-[3-(6-Fluoro-1,2-benzoxazol-3-yl)propyl]pyrrolidin-3-yl]-5-methylbenzothiophene-2-sulphonamide], for which the “5-HT6 ag [%]” value in assay [1] is reported as −5%. For the same molecule, in assay [2] (setting [6]), the “5-HT2A ag [%]” value is listed as −1%. Besides, in assay [3], the “D2 ag [%]” value came to 0% and the “D2 antag [%]” value came to 87%. For the same molecule, in assay [4], the “D3 ag [%]” value is recorded as −26% and the “D3 antag [%]” value came out at 107%. For the same molecule, the “5-HT7 ag [%]” value in assay [5] is reported as −2%.

Take `COc1ccc2cc(S(=O)(=O)N[C@H]3CCN(CCCc4noc5cc(F)ccc45)C3)ccc2c1` [Compound 231, N-[(3S)-1-[3-(6-Fluoro-1,2-benzoxazol-3-yl)propyl]pyrrolidin-3-yl]-6-methoxy-naphthalene-2-sulphonamide]: in assay [2] (setting [6]), the “5-HT2A ag [%]” value amounted to 0%. In addition, in assay [3], the “D2 ag [%]” value is 13% and the “D2 antag [%]” value was determined as 49%. Besides, in assay [4], the “D3 ag [%]” value is −6% and the “D3 antag [%]” value turned out to be 54%.

Consider “N-[1-[3-(6-Fluoro-1,2-benzoxazol-3-yl)propyl]pyrrolidin-3-yl]-1-methyl-imidazole-4-sulphonamide [Compound 217]”, for which the “5-HT6 ag [%]” value in assay [1] is listed as −6%. For the same molecule, the “5-HT6 antag [%]” value in assay [1] (antagonist mode) stood at 85%. Further, the “5-HT2A ag [%]” value in assay [2] (setting [6]) was −2%. Also, in assay [3], the “D2 ag [%]” value came to 10% and the “D2 antag [%]” value is listed as 79%. Moreover, in assay [5], the “5-HT7 ag [%]” value is 5%. Besides, the “5-HT7 antag [%]” value in assay [5] (antagonist mode) turned out to be 74%.

For `O=S(=O)(N[C@@H]1CCN(CCCc2noc3cc(F)ccc23)C1)c1ccc2cc(Cl)ccc2c1` [Compound 200, 6-Chloro-N-[(3R)-1-[3-(6-fluoro-1,2-benzoxazol-3-yl)propyl]pyrrolidin-3-yl]naphthalene-2-sulphonamide], in assay [1], the “5-HT6 ag [%]” value was −2%. Also, the “5-HT2A ag [%]” value in assay [2] (setting [6]) came out at 0%. Moreover, in assay [3], the “D2 ag [%]” value stood at 0% and the “D2 antag [%]” value is recorded as 96%. In assay [4], the “D3 ag [%]” value is on record as −1% and the “D3 antag [%]” value turned out to be 93%. Moreover, the “5-HT7 ag [%]” value in assay [5] is reported as −1%.

`O=S(=O)(N[C@H]1CCN(CCCc2noc3cc(F)ccc23)C1)c1cc2ccc(Cl)cc2s1` [Compound 199, 6-Chloro-N-[(3S)-1-[3-(6-fluoro-1,2-benzoxazol-3-yl)propyl]pyrrolidin-3-yl]benzothiophene-2-sulphonamide]: the “5-HT6 ag [%]” value in assay [1] was −3%. Further, the “5-HT2A ag [%]” value in assay [2] (setting [6]) is −2%. Besides, in assay [3], the “D2 ag [%]” value was found to be 4% and the “D2 antag [%]” value is on record as 46%. The “5-HT7 ag [%]” value in assay [5] was 1%.

`O=S(=O)(NC1CCN(CCCc2noc3cc(F)ccc23)C1)c1ccc2ccccc2c1` (stereo not shown) [Compound 21, N-[1-[3-(6-Fluoro-1,2-benzoxazol-3-yl)propyl]pyrrolidin-3-yl]naphthalene-2-sulphonamide]: the “5-HT6 ag [%]” value in assay [1] worked out at 1%. For the same molecule, the “5-HT2A ag [%]” value in assay [2] turned out to be 2%. Also, the Kb was 8.3 nM in assay [2] (apparent dissociation constant, modified Cheng Prusoff equation, read-out: 5-HT2A antag Kb); 1.6 nM in assay [3] (apparent dissociation constant, modified Cheng Prusoff equation, read-out: D2 antag Kb); 7.3 nM in assay [4] (apparent dissociation constant, modified Cheng Prusoff equation, read-out: D3 antag Kb); 1.7 nM in assay [5]. The “D2 ag [%]” value in assay [3] is recorded as 6%. Also, the “D2 antag [%]” value in assay [3] was determined as 98%. Besides, the “D3 ag [%]” value in assay [4] is given as −8%. Further, in assay [4], the “D3 antag [%]” value amounted to 83%. The “5-HT7 ag [%]” value in assay [5] is listed as −1%.

`Cc1c(S(=O)(=O)NC2CCN(CCCc3noc4cc(F)ccc34)C2)sc2ccc(F)cc12` (stereo not shown) [Compound 28, 5-Fluoro-N-[1-[3-(6-fluoro-1,2-benzoxazol-3-yl)propyl]pyrrolidin-3-yl]-3-methyl-benzothiophene-2-sulphonamide]: the “5-HT6 ag [%]” value in assay [1] is −1%. For the same molecule, the “5-HT2A ag [%]” value in assay [2] (setting [6]) is given as −2%. Besides, in assay [3], the “D2 ag [%]” value is on record as 1% and the “D2 antag [%]” value came to 87%. For the same molecule, in assay [4], the “D3 ag [%]” value is −8% and the “D3 antag [%]” value was found to be 74%. For the same molecule, in assay [5], the “5-HT7 ag [%]” value is listed as −3%.

Take `COc1ccc2cc(S(=O)(=O)NC3CCN(CCCc4noc5cc(F)ccc45)C3)ccc2c1` (stereo not shown) [Compound 227, N-[1-[3-(6-Fluoro-1,2-benzoxazol-3-yl)propyl]pyrrolidin-3-yl]-6-methoxy-naphthalene-2-sulphonamide]: in assay [1], the “5-HT6 ag [%]” value is −4%. Also, the “5-HT2A ag [%]” value in assay [2] (setting [6]) is −2%. In assay [3], the “D2 ag [%]” value came to 11% and the “D2 antag [%]” value is given as 99%. In addition, in assay [4], the “D3 ag [%]” value was −6% and the “D3 antag [%]” value amounted to 105%. Besides, the “5-HT7 ag [%]” value in assay [5] was −2%.

As for `O=S(=O)(NC1CCN(CCCc2noc3cc(F)ccc23)CC1)c1cccc2ccccc12` [Compound 34, N-[1-[3-(6-Fluoro-1,2-benzoxazol-3-yl)propyl]-4-piperidine]-naphthalene-1-sulphonamide], the “5-HT2A ag [%]” value in assay [2] is reported as −1%. In assay [5], the “5-HT7 ag [%]” value is listed as −1% and the Kb amounted to 0.077 nM.

As to `O=S(=O)(NCC1CCN(CCCc2noc3cc(F)ccc23)C1)c1cccc2ccccc12` (stereo not shown) [Compound 239, N-[[1-[3-(6-Fluoro-1,2-benzoxazol-3-yl)propyl]pyrrolidin-3-yl]methyl]naphthalene-1-sulphonamide], the “5-HT6 ag [%]” value in assay [1] is recorded as 2%. For the same molecule, the “5-HT2A ag [%]” value in assay [2] is −2%. For the same molecule, in assay [3], the “D2 ag [%]” value turned out to be 2% and the “D2 antag [%]” value is on record as 56%. Moreover, in assay [5], the “5-HT7 ag [%]” value amounted to 1%.

Turning to `O=S(=O)(N[C@H]1CCN(CCCc2noc3cc(F)ccc23)C1)c1cc2ccccc2s1` [Compound 197, N-[(3S)-1-[3-(6-Fluoro-1,2-benzoxazol-3-yl)propyl]pyrrolidin-3-yl]benzo-thiophene-2-sulphonamide], in assay [1], the “5-HT6 ag [%]” value is given as −1%. In addition, the “5-HT2A ag [%]” value in assay [2] is given as 1%. In addition, in assay [3], the “D2 ag [%]” value was determined as 1% and the “D2 antag [%]” value is on record as 82%. For the same molecule, the “5-HT7 ag [%]” value in assay [5] is on record as 0%.

As for `O=S(=O)(N[C@H]1CCN(CCCc2noc3cc(F)ccc23)C1)c1cc2ccccc2o1` [Compound 215, N-[(3S)-1-[3-(6-Fluoro-1,2-benzoxazol-3-yl)propyl]pyrrolidin-3-yl]benzo-furan-2-sulphonamide], the “5-HT6 ag [%]” value in assay [1] was −2%. Moreover, in assay [2] (setting [6]), the “5-HT2A ag [%]” value was −2%. In addition, in assay [3], the “D2 ag [%]” value amounted to 6% and the “D2 antag [%]” value is listed as 91%. In addition, the “5-HT7 ag [%]” value in assay [5] is reported as 0%.

On to `Cc1c(S(=O)(=O)N[C@@H]2CCN(CCCc3noc4cc(F)ccc34)C2)sc2ccc(Cl)cc12` [Compound 204, 5-Chloro-N-[(3R)-1-[3-(6-fluoro-1,2-benzoxazol-3-yl)propyl]pyrrolidin-3-yl]-3-methyl-benzothiophene-2-sulphonamide], for which the “5-HT6 ag [%]” value in assay [1] is listed as −1%. For the same molecule, the “5-HT2A ag [%]” value in assay [2] (setting [6]) is on record as −1%. In addition, in assay [3], the “D2 ag [%]” value came out at 1% and the “D2 antag [%]” value worked out at 86%. For the same molecule, in assay [4], the “D3 ag [%]” value is −8% and the “D3 antag [%]” value was 109%.

For `O=S(=O)(NCC1CCN(CCCc2noc3cc(F)ccc23)C1)c1ccc2ccccc2c1` (stereo not shown) [Compound 240, N-[[1-[3-(6-Fluoro-1,2-benzoxazol-3-yl)propyl]pyrrolidin-3-yl]methyl]-naphthalene-2-sulphonamide], the “5-HT6 ag [%]” value in assay [1] is listed as 4%. For the same molecule, in assay [2], the “5-HT2A ag [%]” value is given as −1%. In assay [3], the “D2 ag [%]” value came out at 3% and the “D2 antag [%]” value is recorded as 64%. In addition, the “5-HT7 ag [%]” value in assay [5] is on record as 0%.

`O=S(=O)(NC1CCN(CCCc2noc3cc(F)ccc23)C1)c1cc2ccccc2o1` (stereo not shown) [Compound 216, N-[1-[3-(6-Fluoro-1,2-benzoxazol-3-yl)propyl]pyrrolidin-3-yl]benzofuran-2-sulphonamide]: the “5-HT6 ag [%]” value in assay [1] is −5%. Also, the “5-HT2A ag [%]” value in assay [2] (setting [6]) is −2%. Moreover, in assay [3], the “D2 ag [%]” value stood at 0% and the “D2 antag [%]” value was found to be 86%. Further, the “5-HT7 ag [%]” value in assay [5] is −5%.
